Reference: article PMC11901561, “Free Radical Scavenging Activity and Inhibition of Enzyme-Catalyzed Oxidation by trans-aryl-Palladium Complexes” (Molecules, 2025)
Where two headings read alike, the source gives them in different places.

Key:
[1] = ABTS radical scavenging test (spectrophotometric, 734 nm); details: for Radical scavenging activity against ABTS•+: inhibition curve did not converge, EC50 could not be calculated
Procedure: (§1) Radical scavenging capacity, as an indicator of the antioxidant capacity of compounds against 1,1-diphenyl-2-picrylhydrazyl (DPPH) free radicals and 2,2-azinobis (3-ethyl- enzothiazoline-6-sulfonic acid), ABTS•+ radical cations, was determined using a spectrophotometric assay. Antiradical capacity analysis was performed either on pure MeOH for ABTS or the mixture of MeOH/distilled water (90:10 v/v) for DPPH. For both ABTS and DPPH assays, the stock solutions of complexes were prepared in DMSO. Quercetin was used as an antioxidant standard in the DPPH and ABTS•+ scavenging tests. EC50 is defined as the concentration of compound (µM) required to scavenge 50% of ABTS•+ or DPPH radicals. EC50 values were estimated using nonlinear regression. A lower EC50 value indicates higher antiradical activity.
The ABTS assay was based on the method described by Re et al.. For the generation of ABTS•+ radicals, sodium persulfate (2.45 mM) aqueous solution was mixed with ABTS (7 mM) and incubated overnight in the dark to obtain a dark colored solution. The stock solution of ABTS•+ was then diluted by adding pure methanol (100%) to obtain an absorbance of 0.70 (±0.02) at 734 nm at 30 °C. An aliquot of 0.02 mL of tested compound was added to 1.98 mL of ABTS•+, and the decrease in absorbance was monitored at 734 nm after 30 min [80]. During this reaction, the blue green ABTS radical cation is converted back into its colorless neutral form in the presence of the potential antioxidant molecule. A control consisted of 0.02 mL of DMSO in 1.98 mL of ABTS•+ solution. The reducing capacity was determined according to the following formula:% inhibition = (A control − A Sample) × 100/A Control (1)
(§2) Results were expressed as mean values ± standard deviation (SD). All measurements were replicated three times. EC50 values were calculated with GraphPad Prism 6.0 (GraphPad Software, San Diego, CA, USA) under the application of the function “log (inhibitor) versus normalized response-variable slope” after converting the concentrations into their decimal logarithm. The results were analyzed using Student’s test and a two-way analysis of variance (ANOVA), and a multiple comparison of all data was performed using Tukey’s multiple comparisons test. p < 0.0001 was considered significant.

[2] = DPPH radical scavenging test (spectrophotometric, 517 nm); details: for EC50 (g Antioxidant/kg DPPH°): EC50 expressed as weight of antioxidant per kg of DPPH radical; for EC50: concentration scavenging 50% of DPPH, 90% MeOH, 30 min, mean ± SD
Procedure: as §1, with “EC50 is defined as the concentration of compound (µM) required to scavenge 50% of ABTS•+ or DPPH radicals.” left out
The DPPH assay was performed according to the method developed by Brand-Williams et al. slightly modified. A solution of 1 mM DPPH in 90% (v/v) methanol was stirred for 40 min. The absorbance of the solution was adjusted to 0.650 ± 0.020 at 517 nm using fresh 90% (v/v) methanol. Then, 0.02 mL of quercetin taken as a standard or sample was mixed with 1.98 mL of DPPH solution and incubated for 30 min in the dark covered with aluminum foil. When reacting with an antioxidant, the DPPH• radical is converted into DPPH, and its color changes from purple to yellow. The antioxidant effect may be easily evaluated by observing the decrease in visible absorption. The absorbance decrease was monitored at 517 nm after 30 min of incubation with a Hewlett Packard 8453 spectrophotometer. The control consisted of 0.02 mL of DMSO in 1.98 mL of DPPH solution. A similar formula (Equation (1)) was applied to determine the DPPH radical scavenging activity.
as §2

[3] = Antiradical efficiency (kinetic study via DPPH assay); details: for AE (antiradical efficiency): AE = 1/EC50.TEC50, DPPH; for Classification of antiradical efficiency: according to Sanchez-Moreno, from AE value; for TEC50: time needed to reach the steady state at the EC50 concentration, DPPH
Procedure: The reaction between potential antioxidants and the oxidized substrate requires a steady state which will depend on several parameters, such as the reaction time. The time needed to reach the steady state, at the concentration corresponding to EC50, is more and more frequently used and can be defined as TEC50. In brief, TEC50 was determined by plotting the recorded absorbance during the period for the EC50 concentration for the considered antioxidant compound. […] The antiradical efficiency of compounds and their classification are considered according to the work of Sanchez-Moreno [69].

[4] = biological target: T1, horseradish peroxidase (HRP) (Armoracia rusticana, UniProt P00433); experiment: biochemical; type: biochemical; details: for EC50: HRP-H2O2/L-012 system, pH 7.5, 37 °C, 30 min, read-out: EC50 chemiluminescence assay; for Effect on chemiluminescence at lowest concentrations: 1, 5, and 10 µM, HRP-H2O2/L-012
T1 sequence (P00433 31-338 limits assumed): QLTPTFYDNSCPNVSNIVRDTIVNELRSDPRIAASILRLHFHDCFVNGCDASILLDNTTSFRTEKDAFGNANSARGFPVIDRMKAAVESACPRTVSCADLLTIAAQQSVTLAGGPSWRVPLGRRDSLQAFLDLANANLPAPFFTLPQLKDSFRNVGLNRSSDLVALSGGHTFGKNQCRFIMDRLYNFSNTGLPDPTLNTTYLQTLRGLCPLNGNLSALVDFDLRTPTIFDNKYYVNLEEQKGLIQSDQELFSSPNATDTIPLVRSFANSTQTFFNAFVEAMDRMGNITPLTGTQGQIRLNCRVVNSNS
Procedure: To investigate the effect of selected palladium (II)-based complexes on the peroxidase (HRP)-catalyzed oxidation of the chemiluminescent probe (L-012), in the presence of hydrogen peroxide (H2O2), the chemiluminescence technique was used. Briefly, plate-reader-based luminescence measurements were performed in white 96-well plates using a Fluoroskan Ascent FL microplate reader (Thermo Labsystems, Vantaa, Finland), with the temperature set at 37 °C. To 5 µL of a stock solution of HRP (1 mg/mL) in phosphate buffer (pH = 7.5) per well, we successively added 10 µL of L-012 (aqueous solution, 0.84 mmoL) and 2 µL of tested compound in 163 µL of buffer solution. The reaction was triggered by adding 20 µL hydrogen peroxide (0.19 µM) to reach the final volume of 200 µL. The light emission, produced from oxidation of L-012 by HRP/H2O2 system, in the presence or absence of the tested palladium complex, was recorded in kinetic mode for 30 min. Inhibition of the emitted light due to tested complexes was associated with higher activity. The following formula was applied to calculate the inhibiting activity of complexes towards the oxidation of L-012 catalyzed by the HRP/H2O2 system:% inhibition = (L control − L Sample) x 100/L Control
as §2

[5] = flavonoid comparison ref 63; read-out: IC50 DPPH, literature value; cited from earlier work
[6] = concentration scavenging 50% of ABTS•+, MeOH, 30 min, mean ± SD

Compound	EC50 [1, 6] [mM]	EC50 (g Antioxidant/kg DPPH°) [2]	EC50 [2] [µM]	AE (antiradical efficiency) [3]	Classification of antiradical efficiency [3]	EC50 [4] [µM]	Activity against the ABTS radical ([1]; 100 µM)	TEC50 [3] [min]	Effect on chemiluminescence at lowest concentrations [4]	IC50 [5] [µM]	Radical scavenging activity against ABTS•+ [1]	Radical scavenging activity against ABTS•+ ([1]; listed as Cisplatin (CisPt))	Radical scavenging activity against DPPH ([2]; inhibition curve did not converge, EC50 could not be calculated)	EC50 ([1]; value given in text in mM) [mM]	IC50 ([2]; value given in text in mM) [mM]	Activity against the DPPH radical ([2]; 100 µM)
COc1cc[c]([Pd@SP2]([Cl])([PH](c2ccccc2)(c2ccccc2)c2ccccc2)[PH](c2ccccc2)(c2ccccc2)c2ccccc2)cc1 [Complex 3, Trans-Chloro(4-methoxyphenyl) bis(triphenylphosphine)Palladium]	0.0111 ± 0.00094	73.49 ± 38 g Antioxidant/kg DPPH°	1.9 ± 0.87	0.2160 ×10^−3	Low	5.8 ± 2.6										
[I][Pd]([c]1ccccc1)([PH](c1ccccc1)(c1ccccc1)c1ccccc1)[PH](c1ccccc1)(c1ccccc1)c1ccccc1 [Complex 7, Trans-Iodo(phenyl)bis(triphenylphosphine)Palladium]	0.00614 ± 0.00094	1882.11 ± 37 g Antioxidant/kg DPPH°	45.1 ± 0.95	0.0081 ×10^−3	Low	67 ± 20.1	good activity	66	weak effect							
Oc1cc(O)c2c(c1)O[C@H](c1ccc(O)c(O)c1)[C@H](O)C2 [epicatechin]										15.7						
COc1cc[c]([Pd@SP2]([I])([PH](c2ccccc2)(c2ccccc2)c2ccccc2)[PH](c2ccccc2)(c2ccccc2)c2ccccc2)cc1 [Complex 1, Trans-Iodo(4-methoxyphenyl)bis(triphenylphosphine)Palladium]	0.00578 ± 0.00098	49.31 ± 39 g Antioxidant/kg DPPH°	1.14 ± 0.9	1.8437 ×10^−3		3.56 ± 1.87		11								
N.N.[Cl][Pt][Cl] [CisPt, Cisplatin, reference compound]											no antioxidant activity	does not show any radical scavenging activity	no antioxidant activity			
CC(=O)Oc1cc[c]([Pd@SP2]([Br])([PH](c2ccccc2)(c2ccccc2)c2ccccc2)[PH](c2ccccc2)(c2ccccc2)c2ccccc2)cc1 [Complex 5, Trans-Bromo(4-acethoxyphenyl)bis(triphenylphosphine)Palladium]	0.1358 ± 0.00025	653.57 ± 20 g Antioxidant/kg DPPH°	15.5 ± 0.96	0.0264 ×10^−3	Low	5.28 ± 2.3		58						0.135		
COc1cc[c]([Pd@SP2]([Br])([PH](c2ccccc2)(c2ccccc2)c2ccccc2)[PH](c2ccccc2)(c2ccccc2)c2ccccc2)cc1 [Complex 2, Trans-Bromo(4-methoxyphenyl)bis(triphenylphosphine)Palladium]	0.00701 ± 0.00098		7.09 ± 0.94	0.2155 ×10^−3	Low	1.48 ± 0.71		16								
CC(=O)Oc1cc[c]([Pd@SP2]([I])([PH](c2ccccc2)(c2ccccc2)c2ccccc2)[PH](c2ccccc2)(c2ccccc2)c2ccccc2)cc1 [Complex 4, Trans-Iodo(4-acethoxyphenyl)bis(triphenylphosphine)Palladium]	0.0109 ± 0.00095	82,194.89 ± 33 g Antioxidant/kg DPPH°	1840.8 ± 0.44	0.0002 ×10^−3	Low	11.3 ± 3.3		78	weak effect						1.84	
CC(=O)Oc1cc[c]([Pd@SP2]([Cl])([PH](c2ccccc2)(c2ccccc2)c2ccccc2)[PH](c2ccccc2)(c2ccccc2)c2ccccc2)cc1 [Complex 6, Trans-Chloro(4-acethoxyphenyl)bis(triphenylphosphine)Palladium]	0.0458 ± 0.00095	573.94 ± 40 g Antioxidant/kg DPPH°	14.3 ± 0.92	0.0328 ×10^−3	Low	6.46 ± 2.28		53								
[Br][Pd@SP2]([c]1ccccc1)([PH](c1ccccc1)(c1ccccc1)c1ccccc1)[PH](c1ccccc1)(c1ccccc1)c1ccccc1 [Complex 8, Trans-Bromo(phenyl)bis(triphenylphosphine)Palladium]	0.0143 ± 0.00092	260.96 ± 40 g Antioxidant/kg DPPH°	6.64 ± 0.91	0.0955 ×10^−3	Low	33.3 ± 11.7		40	weak effect							good activity
[Cl][Pd@SP2]([c]1ccccc1)([PH](c1ccccc1)(c1ccccc1)c1ccccc1)[PH](c1ccccc1)(c1ccccc1)c1ccccc1 [Complex 9, Trans-Chloro(phenyl)bis(triphenylphosphine)Palladium]	0.0103 ± 0.00064	271.97 ± 36 g Antioxidant/kg DPPH°	7.33 ± 0.97	0.1019 ×10^−3	Low	39.2 ± 17		36	weak effect							
